Results taken from patent publication US4013662A, “Alkyl and benzyl 6,7-dialkoxy-2-methyl-4-oxo-1,2,3,4-tetrahydroquinoline-1-carboxylates” (Pfizer Inc., priority 1975, dated 1977).

Legend:
[1] = Rat Flinch Jump Test (suppression of the jump component); type: in vivo; set-up: unit not given here
Source text: D. Suppression of the "jump" component of the Flinch-Jump Test [Evans, Psychopharmacologia, 2, 318 (1961)].
The following results were obtained when the performance of the d-, l and dl- forms of a compound of the invention were compared in the Rat Flinch Jump Thresholds The control Jump Threshold using saline were 0.78 at 0.5 hr. and 0.92 at 2 hr.
The following results were obtained when 6,7-dimethoxy-2-methyl-4-oxo-1,2,3,4-tetrahydroquinoline, ethyl 6,7-dimethoxy-2-methyl-4-oxo-1,2,3,4-tetrahydroquinoline-1-carboxylate and benzyl 6,7-dimethoxy-2-methyl-4-oxo-1,2,3,4-tetrahydroquinoline-1-carboxylate were compared in the Rat Flinch Jump Test. The dosage of test compound was 56 mpk. Each of the compounds was in its racemic form.

[2] = Symptomatology (rotorod, inclined plane); type: in vivo, mice; conditions: intraperitoneally; for Symptomatology, Inclined Plane: inability to remain on an inclined plane; for Symptomatology, Rotorod: inability to ride a rotating rod
Procedure: c. Symtomatology--Four groups of 3 mice were treated intraperitoneally with 31.6, 100, 316, or 1000 mg/kg of the test compound. At 1/2, 2, or 5 hours after treatment, symtomatological observations were made; observations were all-or-none, and classified into autonomic, muscular, reflex or behavioral categories. […] Symptoms interpreted as indicating tranquilizer activity included decreased spontaneous motor activity, inability to ride a rotating rod (rotorod), and inability to remain on an inclined plane.

[3] = Conditioned Avoidance Behavior (Maffi); type: in vivo; conditions: 0.5 hr.
Source text: (§1) A. Conditioned Avoidance Behavior [Maffi, J. Pharmacol., 11, 129 (1959); Sidman, Science, 118, 157 (1953)].

[4] = Sedation Test (jiggle cage); type: in vivo, male Sprague-Dawley rats; conditions: oral, jiggle cage for 1 hr. from 1.5 hr.
Source text: B. Sedation Test -- The subjects were male Sprague-Dawley rats weighing approximately 200 g and fed and watered ad lib before the experiment. Eight rats were assigned to each treatment group, and each rat was used only once.
1.5 hr. after oral treatment, each rat was placed in a standard jiggle cage for 1 hr. In this device, the subject was confined in a 6 × 6 × 3.5 in. Plexiglas enclosure. The enclosure was attached to one end of a flexible steel arm. This configuration, all of which was housed in a soundproof, ventilated chamber, allowed the enclosure to jiggle slightly with any movement. A force displacement transducer mounted under the jiggle cage monitored any vertical movement of the subject. The output of the transducer was coupled to a strain-gauge amplifier and to an analog recorder. To provide digital data of movement/non-movement times a trigger circuit was constructed in which the output of the strain-gauge amplifier was attentuated and rectified to activate a relay whenever the subject moved. When the relay remained deenergized for 3 sec., a timer was activated. Movement by the subject energized the relay and stopped the timer until 3 sec. of immobility recurred. This 3 sec. criterion eliminated brief periods of inactivity observed even in active rats. […]

[5] = Conditioned Avoidance Behavior (Sidman); type: in vivo
Source text: as §1

Tail Flick Test = type: in vivo; conditions: 100 mpk
Source text: H. Tail Flick Test [Witkin et al, Proc. Soc. Exp. Biol., 101, 377 (1959)].

Escape Titration Test = type: in vivo; conditions: p.o.
Source text: E. Escape Titration Test [Weiss et al, Science, 128, 1575 (1958) ].

LD50 = conditions: in vivo
Hot Plate Test = type: in vivo; conditions: 100 mpk
Source text: G. Hot Plate Test [Eddy et al, J. Pharm. Exp. Ther., 107, 385 (1953)].

[6] = PBQ Writhing (Suppression of Writhing Test); type: in vivo; conditions: 100 mpk
Source text: F. Suppression of Writhing Test [Siegmund et al, Proc. Sec. Exp. Biol., 95, 729 (1957].

[7] = Mouse Tail Pinch Technique (modified Haffner procedure); type: in vivo, mice; conditions: lack of an audible squeak
Source text: The activity of compounds of this invention as analgesic agents has also been shown by testing their effectiveness in a Mouse Tail Pinch Technique. This technique was a modification of the Haffner procedure [Deutsche Med. Wochenschrifte, 55, 731-732 (1929)] in which the mice were strongly pinched on the base of the tail. An audible squeak was elicited in normal non-drugged mice. Lack of an audible squeak was taken as indication of analgesic activity in drugged mice.

[8] = 56 mpk, 0.5 hr., racemic compounds compared (table 4)
[9] = 56 mpk, 2.0 hr., racemic compounds compared (table 4)
[10] = 17.5 mpk, 2 hr, d-, l- and dl- forms compared, saline control 0.92
[11] = 17.5 mpk, .5 hr, d-, l- and dl- forms compared, saline control 0.78
[12] = 32 mpk, 2 hr, d-, l- and dl- forms compared, saline control 0.92
[13] = 32 mpk, .5 hr, d-, l- and dl- forms compared, saline control 0.78
[14] = 56 mpk, 2 hr, d-, l- and dl- forms compared, saline control 0.92
[15] = 56 mpk, .5 hr, d-, l- and dl- forms compared, saline control 0.78

COc1cc2c(cc1OC)C(=O)CC(C)N2 (racemic) [6,7-Dimethoxy-2-methyl-4-oxo-1,2,3,4-tetrahydroquinoline]
Jump Threshold [1, 8]: 1.47
Jump Threshold [1, 9]: 1.10

COc1cc2c(cc1OC)N(C(=O)OCc1ccccc1)C(C)CC2=O (racemic) [Benzyl 6,7-Dimethoxy-2-methyl-4-oxo-1,2,3,4-tetrahydroquinoline-1-carboxylate]
Jump Threshold [1, 8]: 1.47
Jump Threshold [1, 9]: 1.21

CCOC(=O)N1c2cc(OC)c(OC)cc2C(=O)CC1C (racemic) [Ethyl 6,7-Dimethoxy-2-methyl-4-oxo-1,2,3,4-tetrahydroquinoline-1-carboxylate]
Jump Threshold [1, 10]: 0.98
Jump Threshold [1, 11]: 1.26
Jump Threshold [1, 12]: 1.18
Jump Threshold [1, 13]: 1.38
Jump Threshold [1, 8]: 1.58
Jump Threshold [1, 9]: 1.42
Jump Threshold [1, 14]: 1.45
Jump Threshold [1, 15]: 1.58

CCOC(=O)N1c2cc(OC)c(OC)cc2C(=O)CC1C (single isomer, unassigned) [d-ethyl 6,7-dimethoxy-2-methyl-4-oxo-1,2,3,4-tetrahydroquino] [d-Ethyl 6,7-Dimethoxy-2-methyl-4-oxo-1,2,3,4-tetrahydroquinoline-1-carboxylate]
Jump Threshold [1, 10]: 0.98
Jump Threshold [1, 11]: 1.26
Jump Threshold [1, 12]: 1.38
Jump Threshold [1, 13]: 1.45
Jump Threshold [1, 14]: 1.45
Jump Threshold [1, 15]: 1.51

CCOC(=O)N1c2cc(OC)c(OC)cc2C(=O)CC1C (single isomer, unassigned) [l-ethyl 6,7-dimethoxy-2-methyl-4-oxo-1,2,3,4-tetrahydroquino] [l-Ethyl 6,7-Dimethoxy-2-methyl-4-oxo-1,2,3,4-tetrahydroquinoline-1-carboxylate]
Jump Threshold [1, 10]: 0.92
Jump Threshold [1, 11]: 0.92
Jump Threshold [1, 12]: 0.86
Jump Threshold [1, 13]: 0.85
Jump Threshold [1, 14]: 0.86
Jump Threshold [1, 15]: 1.05

CCOC(=O)N1c2cc(OC)c(OC)cc2C(=O)CC1C (stereo not shown) [drawing 7]
Symptomatology, Inclined Plane [2]: 32-100 mpk
Symptomatology, Rotorod [2]: 3.2-10 mpk
Conditioned Avoidance Behavior, Maffi [3]: Active at 56, 32 and 10 mpk
Sedation Test ([4]; 10 mpk): Inactive at 10
Sedation Test ([4]; 32 mpk): Active at 32 mpk
Conditioned Avoidance Behavior, Sidman ([5]; 17.8 mpk): 2 of 3 animals
Conditioned Avoidance Behavior, Sidman ([5]; 32 mpk): Active in 3 of 3 animals

COC(=O)N1c2cc(OC)c(OC)cc2C(=O)CC1C (stereo not shown) [drawing 8]
Symptomatology, Inclined Plane [2]: 100-316 mpk
Symptomatology, Rotorod [2]: 100-316 mpk

CCCCOC(=O)N1c2cc(OC)c(OC)cc2C(=O)CC1C (stereo not shown) [drawing 9]
Symptomatology, Inclined Plane [2]: 100-316 mpk
Symptomatology, Rotorod [2]: 32-100 mpk

COc1cc2c(cc1OC)N(C(=O)OCc1ccccc1)C(C)CC2=O (stereo not shown) [drawing 10]
Symptomatology, Inclined Plane [2]: 100-316 mpk
Symptomatology, Rotorod [2]: 100-316 mpk

CCOC(=O)N1c2cc(OC)c(OC)cc2C(=O)CC1C (stereo not shown) [drawing 11]
Tail Flick % Protected (Tail Flick Test; 2 h): 0%
Tail Flick % Protected (Tail Flick Test; .5 h): 0%
Escape Titration (Escape Titration Test): Active at 32 mpk (p.o.)
Rat Flinch Jump Test, Jump Threshold ([1]; 3.2 mpk i.p., 2 h): .6
Rat Flinch Jump Test, Jump Threshold ([1]; 3.2 mpk i.p., .5 h): .8
Rat Flinch Jump Test, Jump Threshold ([1]; 10 mpk i.p., 2 h, Run two): .8
Rat Flinch Jump Test, Jump Threshold ([1]; 32 mpk i.p., 2 h): > 2.2
Rat Flinch Jump Test, Jump Threshold ([1]; 32 mpk i.p., .5 h): > 2.2
LD50 (LD50): > 1000 mg/kg
Hot Plate % Protected (Hot Plate Test; 2 h): 0%
Hot Plate % Protected (Hot Plate Test; .5 h): 0%
PBQ Writhing [6]: Inactive at 100 mpk

COC(=O)N1c2cc(OC)c(OC)cc2C(=O)CC1C (stereo not shown) [drawing 12]
Tail Flick % Protected (Tail Flick Test; 2 h): 0%
Tail Flick % Protected (Tail Flick Test; .5 h): 0%
Rat Flinch Jump Test, Jump Threshold ([1]; 32 mpk i.p., 2 h): 1.2
Rat Flinch Jump Test, Jump Threshold ([1]; 32 mpk i.p., .5 h): 1.6
LD50 (LD50): > 1000 mg/kg
Hot Plate % Protected (Hot Plate Test; 2 h): 0%
Hot Plate % Protected (Hot Plate Test; .5 h): 0%
PBQ Writhing [6]: Inactive at 100 mpk

CCCCOC(=O)N1c2cc(OC)c(OC)cc2C(=O)CC1C (stereo not shown) [drawing 13]
Tail Flick % Protected (Tail Flick Test; 2 h): 0%
Tail Flick % Protected (Tail Flick Test; .5 h): 0%
Rat Flinch Jump Test, Jump Threshold ([1]; 32 mpk i.p., 2 h): 1.2
Rat Flinch Jump Test, Jump Threshold ([1]; 32 mpk i.p., .5 h): 1.6
LD50 (LD50): 316 to 1000 mg/kg
Hot Plate % Protected (Hot Plate Test; 2 h): 0%
Hot Plate % Protected (Hot Plate Test; .5 h): 0%
PBQ Writhing [6]: Inactive at 100 mpk

COc1cc2c(cc1OC)N(C(=O)OCc1ccccc1)C(C)CC2=O (stereo not shown) [drawing 14]
LD50 (LD50): > 1000 mg/kg
PBQ Writhing [6]: Inactive at 100 mpk

CCOC(=O)N1c2cc(OC)c(OC)cc2C(=O)CC1C (stereo not shown) [drawing 15]
ED50 [7]: > 100 mg/kg

COC(=O)N1c2cc(OC)c(OC)cc2C(=O)CC1C (stereo not shown) [drawing 16]
ED50 [7]: 100 to 316 mg/kg

CCCCOC(=O)N1c2cc(OC)c(OC)cc2C(=O)CC1C (stereo not shown) [drawing 17]
ED50 [7]: > 32 mg/kg
